Results reported in patent publication US12319710B2, “Catecholamine prodrugs for use in the treatment of Parkinson's diseases” (H. Lundbeck A/S, priority 2019, dated 2025).
“Also recorded” adds a separate entry of the source.

How the values were obtained:
[1] = Conversion of compounds in human plasma; type: in vitro ADME; settings: for Observed metabolite, incubation in human plasma: 1 μM test compound, 37° C., 0-6 hours, nd: not detected
Experimental: Frozen human plasma was thawed and then centrifuged at 3200×g for 5 minutes to remove debris. The pH value of the supernatant was then measured and adjusted to 7.4±0.1 by adding 1% phosphoric acid or 1 N sodium hydroxide. 2 μL of dosing solution (50 μM for test compounds and 100 μM for positive control (propantheline bromide)) was mixed with 98 μL of blank plasma to achieve 1 μM test compound and 2 μM positive control of final concentration. The mixture was incubated, and samples were withdrawn from the incubations at the pre-determined time points of 0, 0.5, 1, 2, 4 and 6 hours (in duplicate) at 37° C. in water bath. At each corresponding time point 10 μL inhibitor and 20 μL ascorbic acid and 2 μL formic acid (20%) are added, and then added 400 μL of “stop solution” (200 ng/mL tolbutamide plus 200 ng/mL labetalol in 50% ACN/MeOH) to precipitate protein. The substance was mixed thoroughly and thereafter centrifugated at 4,000 rpm for 20 minutes. Then an aliquot of supernatant (50 μL) was transferred from each well to a sample plate and mixed with 100 μL ultrapure water. The plate was shaked at 800 rpm for about 10 minutes before submitting to LC-MS/MS analysis.
(§1) Instrumentation Used for Analysis of Plasma and Hepatocyte Incubation Samples
(§2) Mass spectrometer (LC-MS/MS) Shimadzu LC 20-AD Shimadzu UHPLC API 4000. Analytical column ACQUITY UPLC® BEH Phenyl 1.7 μm 2.1×50 mm. Mobile phase A: 0.1% Formic Acid in Water. Mobile phase B: 0.1% Formic Acid in Acetonitrile. […] Flow rate 0.7 mL/min.

[2] = PK experiments in rats: plasma compound (I) after oral dosing of prodrug; type: in vivo, Wistar rats; settings: for Observed metabolite, in vivo PK study after oral dosing (rats): plasma
Experimental: Plasma was placed on water-ice following collection. Final storage at approximately −70° C.
Mobile phase B: Acetonitrile. […] Flow rate 0.5 mL/min.
The rats had unrestricted access to the diet.
Mobile phase B: Acetonitrile+0.2% formic acid. […] Flow rate 0.3 mL/min.
Dosing and blood sampling: Han Wistar rats were supplied by Envigo, UK. […] The rats received a standard laboratory diet Teklad 2014C. The rats had unrestricted access to the diet. […] Rats were given […] (Ic), 487 ag/kg compound (7), 487 ag/kg Compound (4), 674 ag/kg compound (9), 359 ag/kg A6 and 551 ag/kg A2.

human 5-HT2B receptor = target: T1, human 5-HT2B receptor (Homo sapiens, UniProt P41595); experiment: 5-HT2B radioligand binding assay ([125I](±)DOI, CHO cell membranes); settings: read-out: 5-HT2B % @ 10 μM (binding affinity, % inhibition of control specific binding)
T1 construct: host or cells: CHO cells (membrane homogenates)
Experimental: Evaluation of the affinity of compounds for the human 5-HT2B receptor was determined in a radioligand binding assay at Eurofins/Cerep (France). Membrane homogenates prepared from CHO cells expressing the human 5HT2B receptor were incubated for 60 minutes at room temperature with 0.2 nM [1251](±)DOI (1-(4-iodo-2, 5-dimethoxyphenyl)propan-2-amine) in the absence or presence of the test compound in a buffer containing 50 mM Tris-HCl (pH 7.4), 5 mM MgCl2, 10 μM pargyline and 0.1% ascorbic acid. Nonspecific binding is determined in the presence of 1 μM (±)DOI. Following incubation, the samples were filtered rapidly under vacuum through glass fiber filters (GF/B, Packard) presoaked with 0.3% polyethyleneimine (PEI) and rinsed several times with ice-cold 50 mM Tris-HCl using a 96-sample cell harvester (Unifilter, Packard). The filters were dried and counted for radioactivity in a scintillation counter (Topcount, Packard) using a scintillation cocktail (Microscint 0, Packard). The results are expressed as a percent inhibition of the control radioligand specific binding. The standard reference compound was (±)DOI, which was tested in each experiment at several concentrations to obtain a competition curve from which its IC50 is calculated.

human hepatocytes = experiment: Conversion of compounds in human hepatocytes; type: in vitro ADME; settings: 1 μM compound, 37° C.; nd: not detected
Experimental: Incubations were conducted in 96-well plates at 1 μM compound concentration in duplicate. The hepatocyte cell concentration was 0.5×10^6 cells/mL used for final incubation at 37° C. in an incubator of 5% CO2 95% relative humidity. The medium control samples were included at 0 and 60 minutes in the absence of cells. The total organic concentration was 1% (DMSO 0.1%) in the final incubation. The controls, (7-ethoxycoumarin and 7-hydroxycoumarin) was incubated parallel at […]. 2 μL of dosing solution (50 μM for test compounds and 100 μM for positive control) was mixed with 98 μL of 100 mM PBS to achieve 1 μM test compound and 2 μM positive control of final concentration. The mixture was incubated, and samples were withdrawn from the incubations at pre-determined time points of 0, 0.5, 1, 2, 4 and 6 hour (in duplicate) at 37° C. in water bath. To each sample, 10 μL inhibitor and 20 μL ascorbic acid and 2 μL formic acid (20%) were added followed by 400 μL of stop solution (200 ng/mL tolbutamide plus 200 ng/mL labetalol in 50% ACN/MeOH). The substance was mixed thoroughly and thereafter centrifuged at 4,000 rpm for 20 minutes. An aliquot of supernatant (50 μL) from each well were transferred to a sample plate and mixed with 100 μL ultrapure water. The plate was shaked at 800 rpm for about 10 minutes before submitting to LC-MS/MS analysis.
as §1, §2

T1 sequence (P41595 whole entry): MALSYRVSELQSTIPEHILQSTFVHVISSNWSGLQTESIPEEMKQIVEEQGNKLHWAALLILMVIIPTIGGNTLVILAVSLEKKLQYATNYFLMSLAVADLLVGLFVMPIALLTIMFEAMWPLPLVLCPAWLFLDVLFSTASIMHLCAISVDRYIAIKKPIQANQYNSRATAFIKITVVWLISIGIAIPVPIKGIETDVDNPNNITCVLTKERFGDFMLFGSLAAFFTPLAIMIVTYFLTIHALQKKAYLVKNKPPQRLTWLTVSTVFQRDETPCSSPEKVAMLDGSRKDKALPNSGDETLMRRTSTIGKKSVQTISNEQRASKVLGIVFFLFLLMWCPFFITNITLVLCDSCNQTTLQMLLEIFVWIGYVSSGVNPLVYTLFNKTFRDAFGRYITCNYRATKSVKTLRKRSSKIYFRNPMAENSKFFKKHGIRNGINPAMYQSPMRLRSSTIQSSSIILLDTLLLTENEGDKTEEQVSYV

| SMILES | inhibition at 10 µM (human 5-HT2B receptor) | Observed metabolite, incubation in human plasma [1] | Observed metabolite, incubation in human hepatocytes (human hepatocytes) | Observed metabolite, in vivo PK study after oral dosing (rats) [2] | also measured |
| --- | --- | --- | --- | --- | --- |
| CCCN1CCC[C@@H]2Cc3c(ccc(O)c3O)C[C@H]21 [(I), (4aR,10aR)-1-Propyl-1,2,3,4,4a,5,10,10a-octahydro-benzo[g]quinoline-6,7-diol, reference compound] | – | – | – | – | half-life in the plasma assay ([1]; human plasma incubation): short half-life |
| CCCN1CCC[C@@H]2Cc3c(ccc(OC(=O)C(C)(C)C)c3OC(=O)C(C)(C)C)C[C@H]21 [(Ic), reference compound] | -5% | – | – | – | plasma concentrations of compound (I) after oral dosing (in words) ([2]; Wistar rats, oral): extremely low |
| CCCN1CCC[C@@H]2Cc3c(ccc(O)c3O[C@@H]3O[C@H](COC(C)=O)[C@@H](OC(C)=O)[C@H](OC(C)=O)[C@H]3OC(C)=O)C[C@H]21 [Compound (2), (2R,3R,4S,5R,6S)-2-(acetoxymethyl)-6-(((4aR,10aR)-7-hydroxy-1-propyl-1,2,3,4,4a,5,10,10a-octahydrobenzo[g]quinolin-6-yl)oxy)tetrahydro-2H-pyran-3,4,5-triyl triacetate] | -6% | Glucuronide | – | – | Observed metabolite, incubation in human plasma ([1]; listed as compound (2)): glucuronide derivative |
| CCCN1CCC[C@@H]2Cc3c(ccc(OC(C)=O)c3O[C@@H]3O[C@H](COC(C)=O)[C@@H](OC(C)=O)[C@H](OC(C)=O)[C@H]3OC(C)=O)C[C@H]21 [Compound (3), (2S,3R,4S,5R,6R)-2-(((4aR,10aR)-7-acetoxy-1-propyl-1,2,3,4,4a,5,10,10a-octahydrobenzo[g]quinolin-6-yl)oxy)-6-(acetoxymethyl)tetrahydro-2H-pyran-3,4,5-triyl triacetate] | 18% | – | Compound (4) | – | – |
| CCCN1CCC[C@@H]2Cc3c(ccc(O)c3O[C@@H]3O[C@H](CO)[C@@H](O)[C@H](O)[C@H]3O)C[C@H]21 [Compound (4), (2S,3R,4S,5S,6R)-2-(((4aR,10aR)-7-hydroxy-1-propyl-1,2,3,4,4a,5,10,10a-octahydrobenzo[g]quinolin-6-yl)oxy)-6-(hydroxymethyl)tetrahydro-2H-pyran-3,4,5-triol] | 0% | – | Compound (I) | Compound (I) | Observed metabolite, in vivo PK study after oral dosing (rats) ([2]; listed as compound (4)): showed conversion in vivo |
| CCCN1CCC[C@@H]2Cc3c(ccc(O[C@@H]4O[C@H](COC(C)=O)[C@@H](OC(C)=O)[C@H](OC(C)=O)[C@H]4OC(C)=O)c3O)C[C@H]21 [Compound (5), (2R,3R,4S,5R,6S)-2-(acetoxymethyl)-6-(((4aR,10aR)-6-hydroxy-1-propyl-1,2,3,4,4a,5,10,10a-octahydrobenzo[g]quinolin-7-yl)oxy)tetrahydro-2H-pyran-3,4,5-triyl triacetate] | 9% | Compound (7) | Compound (7) | – | – |
| CCCN1CCC[C@@H]2Cc3c(ccc(O[C@@H]4O[C@H](COC(C)=O)[C@@H](OC(C)=O)[C@H](OC(C)=O)[C@H]4OC(C)=O)c3OC(C)=O)C[C@H]21 [Compound (6), (2S,3R,4S,5R,6R)-2-(((4aR,10aR)-6-acetoxy-1-propyl-1,2,3,4,4a,5,10,10a-octahydrobenzo[g]quinolin-7-yl)oxy)-6-(acetoxymethyl)tetrahydro-2H-pyran-3,4,5-triyl triacetate] | -5% | Compound (7); also recorded: Compound (5) | Compound (7); also recorded: Compound (5) | – | – |
| CCCN1CCC[C@@H]2Cc3c(ccc(O[C@@H]4O[C@H](CO)[C@@H](O)[C@H](O)[C@H]4O)c3O)C[C@H]21 [Compound (7), (2S,3R,4S,5S,6R)-2-(((4aR,10aR)-6-hydroxy-1-propyl-1,2,3,4,4a,5,10,10a-octahydrobenzo[g]quinolin-7-yl)oxy)-6-(hydroxymethyl)tetrahydro-2H-pyran-3,4,5-triol] | 7% | – | – | – | – |
| CCCN1CCC[C@@H]2Cc3c(ccc(O[C@@H]4O[C@H](COC(C)=O)[C@@H](OC(C)=O)[C@H](OC(C)=O)[C@H]4OC(C)=O)c3O[C@@H]3O[C@H](COC(C)=O)[C@@H](OC(C)=O)[C@H](OC(C)=O)[C@H]3OC(C)=O)C[C@H]21 [Compound (8), [(2R,3R,4S,5R,6S)-6-[[(4aR,10aR)-1-propyl-6-[(2S,3R,4S,5R,6R)-3,4,5-triacetoxy-6-(acetoxymethyl)tetrahydropyran-2-yl]oxy-3,4,4a,5,10,10a-hexahydro-2H-benzo[g]quinolin-7-yl]oxy]-3,4,5-triacetoxy-tetrahydropyran-2-yl]methyl acetate] | -12% | – | – | – | – |
| CCCN1CCC[C@@H]2Cc3c(ccc(O[C@@H]4O[C@H](CO)[C@@H](O)[C@H](O)[C@H]4O)c3O[C@@H]3O[C@H](CO)[C@@H](O)[C@H](O)[C@H]3O)C[C@H]21 [Compound (9), (2R,2′R,3S,3′S,4S,4′S,5R,5′R,6S,6′S)-6,6′-(((4aR,10aR)-1-propyl-1,2,3,4,4a,5,10,10a-octahydrobenzo[g]quinoline-6,7-diyl)bis(oxy))bis(2-(hydroxymethyl)tetrahydro-2H-pyran-3,4,5-triol)] | -5% | Compound (7) | Compound (4); also recorded: Compound (7) | Compound (I) | – |
| CCCN1CCC[C@@H]2Cc3c(ccc(OCc4ccccc4)c3O)C[C@H]21 [Compound A2, (4aR,10aR)-7-(benzyloxy)-1-propyl-1,2,3,4,4a,5,10,10a-octahydrobenzo[g]quinolin-6-ol] | 30% | Compound (I) | Compound (I) | Compound (I) | – |
| CCCN1CCC[C@@H]2Cc3c(ccc(OC)c3O)C[C@H]21 [Compound A6, (4aR,10aR)-7-methoxy-1-propyl-1,2,3,4,4a,5,10,10a-octahydrobenzo[g]quinolin-6-ol] | 24% | – | Compound (I) | Compound (I) | – |
